We go through four molecules from US20250213585A1, “COMPOSITIONS AND METHODS OF A CONCOMITANT THERAPY OF ALTERNATING ELECTRIC FIELDS AND NOTCH-1 INHIBITOR” (NOVOCURE GMBH, priority 2023, published 2025).

Entries after “also recorded” stand apart in the source; their conditions may differ.

For one series, the system named is U251. As to the kind of experiment: Cell viability of glioblastoma cell line U251 (FIGS. 6, 7). The class given is cell-based. How it is done: (§1) For short-term experiments, such as detecting the degradation process of glioblastoma cells under TTFields, U87, U251, LN229, and T98 cell suspensions (450 μL, 100,000 cells per well) were evenly spread on 24 mm cell culture slides. After overnight incubation, the cells were transferred to in vitro dishes and supplemented with 2 mL fresh culture medium. The treatment frequency was 200 kHz, with a treatment field strength of 1.62 V/cm RMS, for a duration of 24 hours. For long-term combination experiments, involving the combined use of RO4929097 or Notch1 gene knockdown with TTFields, cells (450 μL, 40,000 cells per well) were treated with a field strength of 1.19 V/cm RMS and a frequency of 200 kHz for 72 hours. The concentration of RO4929097 drug was varied. For organoid experiments, 3-5 GBOs were added to each well, and fresh GBO medium was replaced. The treatment field strength was 1.19 V/cm RMS, with a frequency of 200 kHz, for treatment durations of 24 and 48 hours.

A further series deals with U87. As to the kind of experiment: Cell viability of glioblastoma cell line U87 (FIGS. 6, 7). Type of series: cell-based. How it is done: as §1
Series [1] relates to glioma cells. As to the kind of experiment: Sensitization of glioma cells to temozolomide (FIGS. 7, 10E). The class given is cell-based. The settings on record: Notch1 inhibitor in combination with temozolomide.
In series [2] the test system is patient-derived glioblastoma organoids (GBOs). As to the kind of experiment: EdU staining of patient-derived glioblastoma organoids with TTFields (FIG. 13I). Type of series: cell-based. How it is done:
as §1

For a further series, the system named is glioblastoma. The following applies: cited from earlier work.
A further series deals with cells. Nature of the series: Combination of Notch1 inhibitor with an alternating electric field (FIGS. 4, 8). The class given is cell-based.
For series [3], the system named is glioma cells. Nature of the series: Clonogenic (colony formation) assay after treatment (FIGS. 5, 10D). Type of series: cell-based. How it is done:
as §1, with “48 hours. Following treatment with TTFields and corresponding conditions, 500-1000 cells were selected from each group and seeded in 6-well dishes. The cells were cultured at 37 degrees Celsius with 5% CO2 for a period of 7-10 days, with medium replacement every 3 days. […]” for “48 hours.”

Series [4] relates to glioma cell lines including U87, U251, and LN229. As to the kind of experiment: Validation assays with TTFields in glioma cell lines (EdU incorporation, cell counting; FIGS. 10A-C). Type of series: cell-based. How it is done:
It was first analyzed whether Notch1 antagonization sensitized glioma cell lines to TTFields treatment. Validation assays were conducted across multiple glioma cell lines including U87, U251, and LN229. The Notch1 inhibitor RO4929097 was used to probe whether it synergizes with TTFields. […] In the validation assays, experimental cohorts were divided into four groups: control (DMSO), TTFields treatment alone, Notch1 inhibitor RO4929097, and TTFields plus RO4929097.
as §1

The test system of a further series is Notch1 protein. As to the kind of experiment: TTFields-mediated degradation of Notch1 protein with degradation pathway inhibitors (FIG. 11E). The settings on record: TTFields treatment. Type of series: cell-based. From the text:
Reduction of Notch1 level by TTFields was also confirmed by immunofluorescence staining (FIGS. 11C and D). The intracellular protein degradation mechanism primarily involves proteasomal and lysosomal degradation pathways. To further elucidate the mechanism of TTFields-mediated degradation of Notch1 protein, lysosomal inhibitor Leupeptin and proteasomal inhibitor MG132 were employed (FIG. 11E). […] Lysosomal degradation of proteins, particularly those located on cell membrane such as Notch1, often involves cell membrane.
Protein levels were evaluated through Western Blot analysis, following the established protocol. The antibodies employed in the study are listed below. Rabbit notch1 (Abcam, ab52627), Rabbit Cleaved Notch1 (CST, 4147S), Mouse anti-GAPDH (Abclonal, A19056), Rabbit anti-Tubulin (Abclonal, AC015), Rabbit anti-Hes1 (ab108937), rabbit anti-Hes5 (Abclonal A16237), rabbit anti-Hey1 (Abclonal A16110), rabbit anti-Myc (Selleck, A5011), anti-rabbit CD133 (Abcam, ab19898), anti-mouse Sox2 (Abcam, ab79351), anti-Rabbit Nestin (Abcam), and Anti-mouse lamp1.

Setting [5] is: 5 μM Notch1 inhibitor alone, FIG. 6.
Where [6] appears, read: 5 μM Notch1 inhibitor alone, FIG. 7.
Where [7] appears, read: 20 μM Notch1 inhibitor alone, FIG. 6.
[8] abbreviates: 20 μM Notch1 inhibitor alone, FIG. 7.
[9] abbreviates: 250 μM Temozolomide and 5 μM Notch1 inhibitor concomitant, FIG. 7.
The mark [10] stands for this setting: 250 μM Temozolomide and 20 μM Notch1 inhibitor concomitant, FIG. 7.
Setting [11] is: TTFields and 5 μM Notch1 inhibitor concomitant, FIG. 6.
[12] abbreviates: TTFields and 20 μM Notch1 inhibitor concomitant, FIG. 6.
The mark [13] stands for this setting: phase I and II clinical trials for glioblastoma.

As to `Cn1nnc2c(C(N)=O)ncn2c1=O` [Temozolomide], the viability at 250 µM with U251 (Homo sapiens, U-251, 250 μM Temozolomide alone, FIG. 7) worked out at 75%; in the series on U87 (Homo sapiens, U-87 MG, 250 μM Temozolomide alone, FIG. 7), 75%.

For the molecule `CC(C)(C(=O)NCC(F)(F)C(F)(F)F)C(=O)N[C@@H]1C(=O)Nc2ccccc2-c2ccccc21` [RO4929097], the “sensitization to / killing by temozolomide (TMZ)” value in the series on glioma cells [1] was “did not sensitize”; in the series on glioma cells [1] (listed as Notch1 inhibitor), “no effect”; in the series with glioma cells [1] (listed as RO) it was “does not enhance killing”. In [2] (Notch1 inhibitor alone), the “cytotoxicity by Edu staining in GBOs” value is “no apparent cytotoxicity”. The “effect with TTFields by Edu staining in GBOs” value in [2] (combined with TTFields) is on record as “clear synergistic effect”. For the same molecule, the cell viability entry is listed as “no change in viability” in the series on U251 (setting [5]); “no change in viability” in the series with U251 (setting [6]); “around 60%” with U251 (setting [7]); “around 80%” in the series on U251 (setting [8]); “no change in viability” with U251 (setting [9]); “no change in viability” with U251 (setting [10]). Further, the cell viability was 20% in the series with U251 (setting [11]); 20% with U251 (setting [12]); 80% in the series on U87 (setting [5]); “no change in viability” in the series on U87 (setting [6]); “around 60%” with U87 (setting [7]); “around 80%” in the series with U87 (setting [8]). Besides, the cell viability entry was “no change in viability” in the series with U87 (setting [9]), “no change in viability” in the series with U87 (setting [10]), 20% in the series with U87 (setting [11]) and 20% in the series with U87 (setting [12]). Also, the safety profile result in the series with glioblastoma (glioblastoma / recurrent GB patients) was “favorable safety profile”. Besides, the blood-brain barrier penetration result in the series on glioblastoma (setting [13]) is “favorable blood-brain barrier penetration”. Also, the “expression of Notch1 downstream genes in tumor cells” value with glioblastoma (setting [13]) is on record as “reduce expression of Notch1 downstream genes”. Besides, in the series on cells (RO4929097 combined with an alternating electric field, low-intensity, long duration, FIGS. 4 and 5), the “sensitization of alternating electric field therapy” value was “sensitizes alternating electric field therapy”. Also, the “colonogenic abilities following re-seeding after treatment” value in the series with glioma cells [3] (Notch1 inhibitor alone, FIG. 5) is reported as “no significant impact”. The “clonogenic ability / long-term proliferative potential” value in the series with glioma cells [3] (Notch1 inhibitor combined with TTFields / alternating electric field, re-seeding after treatment) was “synergy; also recorded: sensitization effect”. Moreover, the “cytotoxicity in EdU incorporation assays” value in [4] (RO4929097 alone, FIGS. 10A and B) is recorded as “minimal cytotoxicity”. Further, in series [4] (RO4929097 combined with TTFields, FIGS. 10A and B), the “therapeutic sensitization in EdU incorporation assays” value was “noticeable enhancement in therapeutic sensitization”. The “growth suppression by TTFields” value in series [4] (combined with TTFields, FIG. 10 legend) is recorded as “enhances growth suppression”.

Turning to `C[C@H](NC(=O)Cc1cc(F)cc(F)c1)C(=O)N[C@H](C(=O)OC(C)(C)C)c1ccccc1` [DAPT], the “therapeutic efficacy of the alternating electric field” value in the series on cells (DAPT combined with an alternating electric field, FIG. 8) is “enhances the therapeutic efficacy”.

`CC(=O)N[C@@H](CC(C)C)C(=O)N[C@@H](CC(C)C)C(=O)N[C@H](C=O)CCCNC(=N)N` [Leupeptin]: in the series on Notch1 protein, the “effect on TTFields-induced degradation of Notch1 protein” value is given as “blocked”.
